The source of these data is PubChem BioAssay AID624491 (Broad Institute, 2012).

Activity calls are given as the source filed them.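 Rule for the calls: active = fitted curve crossing a set activation limit at or below the highest valid dose tested; inconclusive = flat fit at 30 to 70% activation, or poor fit; inactive = the rest, including signal decreases.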 A value given as a limit tells only on which side of the number the result lay.

The subject of this test is D54 ERlucT glycosylation luciferase reporter, luminescence, 24 h. As to the kind of experiment: blockers of NLG process in reporter cells – D54 ERlucT cells, luminescence, cherry-picks, dose response (AID 624491).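 Note: signal gain reflects blocked N-linked glycosylation of a luciferase reporter; actives raise luciferase signal so AC26 marks activators of the reporter.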

On to `CC(=O)Nc1ccc(Nc2ccc3c4c(cc(=O)n3C)-c3ccccc3C(=O)c24)cc1`, for which the AC26 is 730 nM.

In the case of `Cc1ccc(OCCN2C(=O)C(=O)c3cc(C)ccc32)cc1`, the AC26 was 2460 nM.

Consider `CC(C)C(=O)Nc1ccc(C(=O)N/N=C/c2cc(Br)cc(Br)c2O)cc1`, for which the AC26 was 9890 nM.

Consider `CCNC(=O)c1cc2c(=O)n3cccc(C)c3nc2n(CCc2ccccc2)c1=N`, for which the AC26 is 1520 nM.

For `O=C(/C=C/c1cccc(Br)c1)c1ccc2c(c1)OCO2`, the AC26 was 7470 nM.

On to `COc1ccc(OC)c(S(=O)(=O)Nc2ccc3c(c2)n(C)c(=O)n3C)c1`, for which the AC26 is 3320 nM.

For `CCN(CC)CCNC(=O)c1cc2c(-c3ccc(Cl)cc3)nn(C)c2s1`, the AC26 was 3330 nM.

For `C#CC[N+](C)(C)CCCCCCCCC`, the AC26 was 6070 nM.

On to `O=C(N/N=C/c1ccc(F)cc1)c1sccc1OCc1ccc(F)cc1`, for which the AC26 is 1630 nM.

Take `CCN(CC)CCCNC(=O)CSc1c2c(nc3cc(Cl)ccc13)CCCC2`: the AC26 is 11400 nM.

Consider `Cc1ccc(C(=O)N2CCN(Cc3ccccc3)CC2)cc1S(=O)(=O)N1CCOCC1`, for which the AC26 was 1670 nM.

Take `CC12CC[C@H]3[C@@H](CCC4(O)C[C@H](O)CCC34/C=N/NC(=O)c3ccccc3[N+](=O)[O-])C1(O)CCC2C1=CC(=O)OC1` (some centres undefined): the AC26 is 4280 nM.

Turning to `COc1cccc(-c2cnc3c(NC(C)=O)cc(-c4cc(F)ccc4OC)cn23)c1`, the AC26 is 1600 nM.

In the case of `CCNc1oc(/C=C/c2ccc(OCC)cc2)nc1C#N`, the AC26 was > 19500 nM (inactive).

In the case of `Nc1c(C(=O)Nc2ccc(S(=O)(=O)N3CCCC3)cc2)sc2nc3ccc(OC(F)(F)F)cc3cc12`, the AC26 is 1160 nM.

With `Cn1nc(C(F)(F)F)c(/C=N/OC(=O)c2ccccc2Cl)c1SCc1ccccc1Cl`, the AC26 was 817 nM.

For `Cc1noc(C)c1-c1ccc(C(=O)NCc2cccnc2)c2occc12`, the AC26 is 4700 nM.

On to `c1ccc(CNc2nc(NCCc3ccncc3)c3sccc3n2)cc1`, for which the AC26 was 1120 nM.

With `CCN1C(=O)c2cccc3c(S(=O)(=O)Nc4ccccn4)ccc1c23`, the AC26 is 2870 nM.

On to `Cc1cc(C)nc(/N=C(\N)Nc2ccc(OCc3ccccc3)cc2)n1`, for which the AC26 is 8.88 nM.

With `Cc1ccc(C(=O)N/C(=C/c2ccco2)C(=O)NCCc2c[nH]c3ccccc23)cc1`, the AC26 is 2670 nM.

`O=c1cc(N/N=C/c2ccccc2)[nH]c(=O)[nH]1`: the AC26 is 14400 nM.

In the case of `COc1ccc(-c2nn(C)c(=O)c3ccccc23)cc1NS(C)(=O)=O`, the AC26 was 4620 nM.

Consider `COc1ccc(S(=O)(=O)NCc2ccccn2)cc1NC(=O)c1ccccc1F`, for which the AC26 was 1200 nM.

As for `CCN(CC)S(=O)(=O)c1cc(NC(=O)Cn2ncc(Cl)c(Cl)c2=O)ccc1C`, the AC26 was 1030 nM.

On to `COc1ccc(/C=N/NC(=O)c2cccnc2)cc1COc1ccc(NC(C)=O)cc1`, for which the AC26 is 1990 nM.

For the molecule `COC(=O)c1cc(OC)c(OC)cc1NC(=S)NC(=O)c1ccco1`, the AC26 is 607 nM.

`CCc1nn2c(N(C)CCO)cc(C)nc2c1-c1ccc(F)cc1`: the AC26 is 12800 nM.

Turning to `O=[N+]([O-])c1cc(S(=O)(=O)C(F)(F)F)ccc1Sc1nc2ccccc2[nH]1`, the AC26 is 4570 nM.

Turning to `O=C(c1ccc2ncsc2c1)N1CCN(c2cccc(C(F)(F)F)c2)CC1`, the AC26 is 4190 nM.

For `CS(=O)(=O)Nc1cccc(NC(=O)C2Cc3c(-c4ccccc4)ccnc3O2)c1` (centres undefined), the AC26 is 2360 nM.

For `O=C(NCCN1C(=O)S/C(=C\c2ccc(Cl)cc2Cl)C1=O)C1=COCCO1`, the AC26 is > 19500 nM (inactive).

Regarding `Cc1ccc2[nH]c(=O)c3cc(C(=O)NC(C)C)sc3c2c1`, the AC26 is 3990 nM.

Regarding `NNC(=O)c1oc2nc(-c3cccs3)cc(-c3ccco3)c2c1N`, the AC26 was 2640 nM.

Consider `Cc1cccc(NC(=O)Nc2cccc(C#N)c2)n1`, for which the AC26 is 4060 nM.

For the molecule `COC(=O)c1ccc(C(=O)NC2CC(C)(C)Cc3c2cnn3-c2ccc(F)cc2)nc1` (centres undefined), the AC26 is 4170 nM.

On to `O=C(NCc1cccs1)C1CCN(c2ccc(S(=O)(=O)N3CCOCC3)cc2Cl)CC1`, for which the AC26 is 646 nM.

Consider `O=C(CCl)Nc1cn(-c2ccccc2)nc1-c1ccc(F)cc1`, for which the AC26 is 3860 nM.

Take `O=C(Nc1ccccc1)N(CCN1CCOCC1)Cc1ccccc1F`: the AC26 was 1360 nM.

For `COc1cccc(-c2cc3nc(-c4ccccc4)cc(=O)n3[nH]2)c1`, the AC26 is 7070 nM.

Turning to `c1ccc2c(c1)oc1c(-c3ccc4nccn4c3)cccc12`, the AC26 was 8270 nM.

For `NC(=O)c1cccc(-c2ccnc3c2CC(C(=O)NCc2ccccc2)O3)c1` (centres undefined), the AC26 was 2000 nM.

`Cn1cccc1/C=C1\C(=O)NC(=O)N(Cc2ccccc2)C1=O`: the AC26 was 267 nM.

With `CCN(CCCNC(=O)COc1cc(=O)n(CC)c2ccccc12)Cc1ccccc1`, the AC26 is 2530 nM.

As for `CNC(=O)c1cccn(Cc2cc(C(F)(F)F)cc(C(F)(F)F)c2)c1=O`, the AC26 was 16000 nM.

`COc1ccc(S(=O)(=O)N2CCCOC2CNC(=O)C(=O)NCCc2ccco2)cc1C` (centres undefined): the AC26 is 9490 nM.

Regarding `CCn1c2ccccc2c2cc(/C=N/NC(=O)c3ccc(O)cc3)ccc21`, the AC26 was 2160 nM.

Turning to `COc1ccc(Nc2oc(-c3ccc(Cl)cc3)nc2C#N)cc1`, the AC26 was 348 nM.

Turning to `O=C(NC1CCCCCC1)c1c2c(nc3ccccc13)CCN(Cc1ccccc1)C2`, the AC26 was 5800 nM.

For `Cc1c(Cl)cccc1Nc1nc(N)nc(CN2CCc3ccccc3C2)n1`, the AC26 is 320 nM.

Consider `OCCCNc1c2ccccc2nc2ccccc12`, for which the AC26 was 467 nM.

Regarding `COc1cc(NC(=O)CN2c3cccc4cccc(c34)S2(=O)=O)cc(OC)c1OC`, the AC26 is 1770 nM.

Regarding `COc1ccc(S(=O)(=O)Nc2c(C(=O)O)[nH]c3ccc(OC)cc23)c(OC)c1`, the AC26 was 5750 nM.

Consider `O=[N+]([O-])c1ccc(Sc2cc[n+]([O-])c3ccccc23)c([N+](=O)[O-])c1`, for which the AC26 was 5960 nM.

Take `CCOC(=O)c1[nH]c(C)c(C(=O)Nc2ccc(C)c(F)c2)c1C`: the AC26 was 5420 nM.

`Cn1nc(-c2ccc(Cl)cc2)c2cc(C(=O)NCCCN3CCOCC3)sc21`: the AC26 was 4330 nM.

As to `Cn1c(=O)cc2c3c(c(N4CCCCC4)ccc31)C(=O)c1ccccc1-2`, the AC26 was 4360 nM.

As for `COc1ccc(C2=NOC(C(=O)NCc3ccco3)C2)cc1` (centres undefined), the AC26 is 2400 nM.

For `COc1cc2c(cc1OC)C(c1ccccc1)N(C(=O)c1ccccc1)CC2` (centres undefined), the AC26 was 869 nM.

`CC(Nc1nc(-c2cccnc2)nc2ccccc12)c1ccccc1` (centres undefined): the AC26 was 2830 nM.

For the molecule `COc1cc(OC)c2c(-c3cccc(-c4ccoc4)c3)cc(=O)oc2c1`, the AC26 is 7640 nM.

Turning to `CSc1ccc(/C=N/NC(=O)c2ccccc2Cl)cc1`, the AC26 was 3680 nM.

For the molecule `CC(C)(C)c1nnc2sc(SCC(=O)c3ccc4c(c3)OCCO4)nn2c1=O`, the AC26 was 5230 nM.

With `CCOC(=O)COc1cccc2c(=O)n(CC(=O)NCc3ccccc3)ccc12`, the AC26 is 2540 nM.

`CCOC(=O)C(C)Oc1cccc2c(=O)n(CC(=O)NCc3ccc(F)cc3)ccc12` (centres undefined): the AC26 is 1720 nM.

Take `COc1ccccc1-c1csc(C(NC(C)=O)c2ccccc2)n1` (centres undefined): the AC26 was less than 1.2 nM.

In the case of `Cc1ccc(C)c(Cn2nnc3c(=O)[nH]c(C4CCN(C(=O)c5ccco5)CC4)nc32)c1`, the AC26 is 1110 nM.

`C/C(=N\NC(=O)c1c([N+](=O)[O-])c(C)nn1C)c1ccc(NC(=O)C2CCCC2)cc1`: the AC26 was 498 nM.

On to `Cc1cccc(CCNC(=O)CCCOc2cc(=O)n(C)c3ccccc23)c1`, for which the AC26 is 4450 nM.
